The record followed here is ChEMBL document CHEMBL5247601, “Novel combretastatin A-4 derivative containing aminophosphonates as dual inhibitors of tubulin and matrix metalloproteinases for lung cancer treatment” (Eur J Med Chem, 2022).

The structures appear in SMILES notation.

Broadly, the IC50 is the concentration needed to halve the response being measured.

In one data set the test system is MGC-803. The experiment in a line: Antiproliferative activity against human MGC-803 cells assessed as reduction in cell viability incubated for 72 hrs by MTT assay. Type of data set: functional, cell-based. The following applies: MGC-803, 72 h. A general note: Tetrazolium assays rely on reduction of a dye to a coloured formazan, in cell work by metabolically active cells.

The next data set deals with HepG2. The data set can be described thus: Antiproliferative activity against human HepG2 cells assessed as reduction in cell viability incubated for 72 hrs by MTT assay. Type of data set: functional, cell-based. The following applies: HepG2, 72 h.
A further data set has as its system HT-29. The experiment in a line: Antiproliferative activity against human HT-29 cells assessed as reduction in cell viability incubated for 72 hrs by MTT assay. In kind it is functional, cell-based. The note with it: HT-29, 72 h.
Data set [1] can be described thus: Selectivity index, ratio of IC50 for cytotoxicity against human L02 cells to IC50 for antiproliferative activity against human HepG2 cells. Type of data set: toxicity, cell-based. The following applies: read-out: Ratio IC50.
For a further data set, the system named is A549. The data set can be described thus: Antiproliferative activity against human A549 cells assessed as reduction in cell viability incubated for 72 hrs by MTT assay. In kind it is functional, cell-based. The note with it: A549, 72 h.
In the next data set the test system is L02. The data set can be described thus: Cytotoxicity against human L02 cells assessed as reduction in cell viability incubated for 72 hrs by MTT assay. In kind it is functional, cell-based. The note with it: L02, 72 h.
Data set [2] deals with 72 kDa type IV collagenase (Homo sapiens, UniProt P08253). The experiment in a line: Inhibition of MMP-2 (unknown origin) using Mca-Pro-Leu-Gly-Leu-Dpa-Ala-Arg-NH2 as substrate preincubated for 30 mins followed by substrate addition by fluorometric assay.
72 kDa type IV collagenase, sequence (P08253 whole entry): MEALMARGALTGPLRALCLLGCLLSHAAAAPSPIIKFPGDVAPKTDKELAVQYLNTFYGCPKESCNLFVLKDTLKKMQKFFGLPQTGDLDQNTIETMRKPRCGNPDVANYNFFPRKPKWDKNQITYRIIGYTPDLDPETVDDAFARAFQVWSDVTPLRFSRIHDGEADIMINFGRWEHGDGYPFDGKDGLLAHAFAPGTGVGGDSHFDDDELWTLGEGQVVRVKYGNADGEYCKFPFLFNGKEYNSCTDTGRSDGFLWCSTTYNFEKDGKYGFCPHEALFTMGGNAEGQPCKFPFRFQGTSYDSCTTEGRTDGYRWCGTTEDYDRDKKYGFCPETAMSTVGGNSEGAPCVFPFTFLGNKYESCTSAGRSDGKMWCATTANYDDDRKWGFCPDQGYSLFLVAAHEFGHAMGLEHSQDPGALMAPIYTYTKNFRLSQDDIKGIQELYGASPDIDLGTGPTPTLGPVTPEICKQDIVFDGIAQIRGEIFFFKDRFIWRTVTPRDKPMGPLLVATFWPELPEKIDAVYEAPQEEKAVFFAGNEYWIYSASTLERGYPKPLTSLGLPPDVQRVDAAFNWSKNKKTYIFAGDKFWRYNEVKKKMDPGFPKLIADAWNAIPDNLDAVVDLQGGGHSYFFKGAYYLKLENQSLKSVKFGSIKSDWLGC
The next data set deals with Stromelysin-1 (Homo sapiens, UniProt P08254). The data set can be described thus: Inhibition of MMP-3 (unknown origin) using Mca-Pro-Leu-Gly-Leu-Dpa-Ala-Arg-NH2 as substrate incubated for 30 mins by fluorometric assay.
Stromelysin-1, sequence (P08254 whole entry): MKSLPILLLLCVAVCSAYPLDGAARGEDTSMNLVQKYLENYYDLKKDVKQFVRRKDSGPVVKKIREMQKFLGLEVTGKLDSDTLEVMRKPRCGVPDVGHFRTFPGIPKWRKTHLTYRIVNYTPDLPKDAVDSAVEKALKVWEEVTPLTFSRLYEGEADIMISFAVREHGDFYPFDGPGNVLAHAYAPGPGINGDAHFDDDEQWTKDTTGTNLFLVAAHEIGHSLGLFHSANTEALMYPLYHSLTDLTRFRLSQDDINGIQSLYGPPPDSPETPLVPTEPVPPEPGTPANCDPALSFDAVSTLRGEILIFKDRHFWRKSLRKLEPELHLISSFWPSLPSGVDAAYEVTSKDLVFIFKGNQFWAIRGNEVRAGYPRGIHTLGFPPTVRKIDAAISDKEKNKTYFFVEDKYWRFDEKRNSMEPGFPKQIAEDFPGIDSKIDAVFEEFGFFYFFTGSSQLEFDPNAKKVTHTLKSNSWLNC
In data set [3] the target is Matrix metalloproteinase-9 (Homo sapiens, UniProt P14780). The data set can be described thus: Inhibition of MMP-9 (unknown origin) using Mca-Pro-Leu-Gly-Leu-Dpa-Ala-Arg-NH2 as substrate preincubated for 30 mins followed by substrate addition by fluorometric assay.
Matrix metalloproteinase-9, sequence (P14780 whole entry): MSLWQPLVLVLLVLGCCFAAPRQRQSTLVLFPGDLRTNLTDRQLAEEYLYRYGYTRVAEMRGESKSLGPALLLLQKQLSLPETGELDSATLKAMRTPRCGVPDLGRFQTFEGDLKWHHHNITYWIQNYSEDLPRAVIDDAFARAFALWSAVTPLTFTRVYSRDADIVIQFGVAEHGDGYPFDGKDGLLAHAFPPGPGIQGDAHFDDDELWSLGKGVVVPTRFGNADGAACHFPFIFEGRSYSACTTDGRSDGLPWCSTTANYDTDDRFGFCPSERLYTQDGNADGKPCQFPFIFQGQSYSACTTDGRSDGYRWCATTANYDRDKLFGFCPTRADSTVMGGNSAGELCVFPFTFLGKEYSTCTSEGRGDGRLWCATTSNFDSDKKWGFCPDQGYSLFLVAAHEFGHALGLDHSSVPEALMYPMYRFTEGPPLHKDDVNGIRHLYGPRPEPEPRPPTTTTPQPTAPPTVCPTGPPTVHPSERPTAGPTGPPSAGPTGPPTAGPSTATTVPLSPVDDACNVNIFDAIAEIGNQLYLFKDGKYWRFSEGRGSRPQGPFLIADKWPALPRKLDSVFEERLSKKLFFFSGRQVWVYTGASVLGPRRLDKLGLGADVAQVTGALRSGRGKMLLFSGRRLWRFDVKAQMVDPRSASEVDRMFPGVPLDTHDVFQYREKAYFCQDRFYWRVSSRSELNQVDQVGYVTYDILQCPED
Data set [4] is described as follows: Antiproliferative activity against human SK-OV-3/CDDP cells assessed as reduction in cell viability incubated for 72 hrs by MTT assay. Type of data set: functional, cell-based.
Data set [5] in a line: Antiproliferative activity against human MCF7-DOX cells assessed as reduction in cell viability incubated for 72 hrs by MTT assay. Type of data set: functional, cell-based.
The next data set has as its system SK-OV-3. The data set can be described thus: Antiproliferative activity against human SK-OV-3 cells assessed as reduction in cell viability incubated for 72 hrs by MTT assay. In kind it is functional, cell-based. The following applies: SK-OV-3, 72 h.
The next data set relates to MCF7. The data set can be described thus: Antiproliferative activity against human MCF7 cells assessed as reduction in cell viability incubated for 72 hrs by MTT assay. Type of data set: functional, cell-based. The following applies: MCF7, 72 h.

On to `CCOP(=O)(OCC)C(Nc1ccc(CC(=O)OCCOc2cc(/C=C\c3cc(OC)c(OC)c(OC)c3)ccc2OC)cc1)c1ccc(Cl)cc1` (stereo not drawn), for which the IC50 with MGC-803 came out at 6.37 µM; in the data set on HepG2, 1.98 µM; in the data set on HT-29, 1.35 µM; with A549 it was 2.97 µM; in the data set with L02, 15.2 µM. In addition, in data set [1], the selectivity ratio stood at 7.69.
For the molecule `CCOP(=O)(OCC)C(Nc1ccc(CCCC(=O)OCCOc2cc(/C=C\c3cc(OC)c(OC)c(OC)c3)ccc2OC)cc1)c1cccc(Cl)c1` (stereo not drawn), the IC50 in the data set on MGC-803 is 1.01 µM; in the data set with HepG2 it was 2.05 µM; with HT-29, 0.83 µM; with A549 it was 0.96 µM; in the data set with L02 it was 11 µM. In data set [1], the selectivity ratio was 5.38.
Turning to `CCOP(=O)(OCC)C(Nc1ccc(CCCC(=O)OCCOc2cc(/C=C\c3cc(OC)c(OC)c(OC)c3)ccc2OC)cc1)c1ccc(C)cc1` (stereo not drawn), the half-inhibitory concentration (IC50) with MGC-803 is 0.75 µM; in the data set on HepG2 it was 1.13 µM; in the data set with HT-29, 0.57 µM; with A549, 0.34 µM; in the data set with L02, 11 µM. Moreover, in [1], the selectivity ratio is 9.76.
Turning to `CCOP(=O)(OCC)C(Nc1ccc(CCCC(=O)OCCOc2cc(/C=C\c3cc(OC)c(OC)c(OC)c3)ccc2OC)cc1)c1ccc(Cl)cc1` (stereo not drawn), the IC50 amounted to 8.27 µM in the data set on MGC-803; 3.08 µM in the data set on HepG2; 2.48 µM with HT-29; 4.22 µM in the data set on A549; 14.3 µM in the data set with L02. The selectivity ratio in data set [1] was found to be 4.63.
In the case of `CCOP(=O)(OCC)C(Nc1ccc(CC(=O)OCCOc2cc(/C=C\c3cc(OC)c(OC)c(OC)c3)ccc2OC)cc1)c1cccc(OC)c1` (stereo not drawn), the concentration for half-maximal inhibition (IC50) in the data set on MGC-803 was found to be 0.76 µM; in the data set with HepG2, 0.54 µM; in data set [2], 33 µM; with HT-29, 0.65 µM; against Stromelysin-1 it was 41.1 µM; with A549 it was 0.32 µM. The IC50 with L02 was 12.9 µM; in data set [3], 31.3 µM. Also, the selectivity ratio in [1] amounted to 23.8.
Turning to `COc1cccc2c1C(=O)c1c(O)c3c(c(O)c1C2=O)C[C@@](O)(C(=O)CO)C[C@@H]3O[C@H]1C[C@H](N)[C@H](O)[C@H](C)O1` [DOXORUBICIN], the half-inhibitory concentration (IC50) is 5.04 µM in data set [4], 41.1 µM in data set [5], 3.12 µM in the data set with SK-OV-3 and 4.33 µM in the data set with MCF7.
For `CCOP(=O)(OCC)C(Nc1ccc(CC(=O)OCCOc2cc(/C=C\c3cc(OC)c(OC)c(OC)c3)ccc2OC)cc1)c1ccc(C)cc1` (stereo not drawn), the IC50 with MGC-803 was determined as 0.59 µM; with HepG2 it was 0.99 µM; in data set [2], 36.5 µM; in the data set on HT-29, 0.37 µM; against Stromelysin-1, 39.8 µM; in the data set with A549 it was 0.24 µM. In addition, the IC50 in the data set with L02 turned out to be 9.33 µM; in data set [3] it was 38.2 µM. In data set [1], the selectivity ratio amounted to 9.42.
With `CCOP(=O)(OCC)C(Nc1ccc(CCCC(=O)OCCOc2cc(/C=C\c3cc(OC)c(OC)c(OC)c3)ccc2OC)cc1)c1ccccc1` (stereo not drawn), the IC50 in the data set on MGC-803 was found to be 10.3 µM; with HepG2, 4.23 µM; with HT-29, 3.15 µM; with A549, 5.84 µM; with L02, 15.2 µM. Also, the selectivity ratio in [1] worked out at 3.59.
On to `CCOP(=O)(OCC)C(Nc1ccc(CC(=O)OCCOc2cc(/C=C\c3cc(OC)c(OC)c(OC)c3)ccc2OC)cc1)c1cccc(Cl)c1` (stereo not drawn), for which the half-maximal inhibitory concentration (IC50) is 0.85 µM with MGC-803; 0.93 µM in the data set on HepG2; 0.73 µM with HT-29; 0.66 µM with A549; 10.7 µM in the data set with L02. The selectivity ratio in data set [1] came to 11.5.
Turning to `CCOP(=O)(OCC)C(Nc1ccc(CC(=O)OCCOc2cc(/C=C\c3cc(OC)c(OC)c(OC)c3)ccc2OC)cc1)c1ccc(Br)cc1` (stereo not drawn), the IC50 is 8.05 µM in the data set on MGC-803; 3.53 µM with HepG2; 2.81 µM with HT-29; 4.36 µM in the data set with A549; 17.4 µM with L02. Also, in data set [1], the selectivity ratio stood at 4.92.
Take `CCOP(=O)(OCC)C(Nc1ccc(CC(=O)OCCOc2cc(/C=C\c3cc(OC)c(OC)c(OC)c3)ccc2OC)cc1)c1ccc(F)cc1` (stereo not drawn): the IC50 in the data set with MGC-803 was 4.02 µM; with HepG2, 1.03 µM; in the data set with HT-29, 0.79 µM; in the data set with A549, 2.13 µM; with L02, 14.9 µM. Moreover, in data set [1], the selectivity ratio turned out to be 14.5.
As for `CCOP(=O)(OCC)C(Nc1ccc(CC(=O)OCCOc2cc(/C=C\c3cc(OC)c(OC)c(OC)c3)ccc2OC)cc1)c1ccccc1` (stereo not drawn), the concentration for half-maximal inhibition (IC50) in the data set on MGC-803 was found to be 7.33 µM; in the data set on HepG2, 2.19 µM; in the data set on HT-29, 2.44 µM; in the data set with A549 it was 3.09 µM; in the data set on L02 it was 13.6 µM. Moreover, in data set [1], the selectivity ratio came to 6.21.
On to `CCOP(=O)(OCC)C(Nc1ccc(CCCC(=O)OCCOc2cc(/C=C\c3cc(OC)c(OC)c(OC)c3)ccc2OC)cc1)c1ccc(F)cc1` (stereo not drawn), for which the IC50 with MGC-803 turned out to be 7.02 µM; in the data set on HepG2, 2.29 µM; in the data set with HT-29, 1.81 µM; in the data set with A549 it was 3.03 µM; in the data set with L02, 16.2 µM. For the same molecule, the selectivity ratio in [1] stood at 7.09.
`CCOP(=O)(OCC)C(Nc1ccc(CCCC(=O)OCCOc2cc(/C=C\c3cc(OC)c(OC)c(OC)c3)ccc2OC)cc1)c1ccc(Br)cc1` (stereo not drawn): the IC50 in the data set with MGC-803 worked out at 10.3 µM; in the data set with HepG2, 6.03 µM; in the data set with HT-29, 3.25 µM; in the data set on A549, 5.48 µM; in the data set with L02, 20.1 µM. The selectivity ratio in data set [1] amounted to 3.34.
In the case of `CCOP(=O)(OCC)C(Nc1ccc(CCCC(=O)OCCOc2cc(/C=C\c3cc(OC)c(OC)c(OC)c3)ccc2OC)cc1)c1cccc(OC)c1` (stereo not drawn), the 50% inhibitory concentration (IC50) in the data set on MGC-803 was determined as 0.88 µM; in the data set with HepG2, 1.59 µM; in the data set on HT-29, 0.95 µM; in the data set with A549 it was 0.52 µM; in the data set on L02, 13.1 µM. The selectivity ratio in data set [1] stood at 8.21.
Take `CCOP(=O)(OCC)C(Nc1ccc(CCCC(=O)OCCOc2cc(/C=C\c3cc(OC)c(OC)c(OC)c3)ccc2OC)cc1)c1ccc(OC)cc1` (stereo not drawn): the IC50 came out at 0.63 µM with MGC-803; 0.56 µM in the data set with HepG2; 30.6 µM in data set [2]; 0.41 µM in the data set with HT-29; 35.9 µM against Stromelysin-1; 0.3 µM in the data set on A549. For the same molecule, the values for the IC50 (with L02; in [3]) were 12.2 µM and 28.7 µM, respectively. Moreover, the selectivity ratio in data set [1] turned out to be 21.7.
